Results published in ChEMBL document CHEMBL1201862, “PubChem BioAssay data set” (2004).
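Compound exposure: 48 hours, 5 concentrations, 96-well plates. At the GI50, growth is halved.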 Activity calls are given as the source filed them. Rule as the data show it: active = GI50 up to about 1.1 µM and inactive = higher.

Key:
Experiment in all cases: DTP human tumour cell line panel, 48 h
[1] = system: TK-10
[2] = system: M19-MEL
[3] = system: SNB-78
[4] = system: MOLT-4
[5] = system: LXFL 529
[6] = system: DLD-1
[7] = system: KM-20L2
[8] = system: RXF 631
[9] = system: NCI-H23
[10] = system: KM12
[11] = system: DMS-114
[12] = system: EKVX
[13] = system: A549
[14] = system: NCI-H460
[15] = system: SF-295
[16] = system: CAKI-1
[17] = system: SR
[18] = system: HOP-18
[19] = system: HCC 2998
[20] = system: HCT-116
[21] = system: SK-OV-3
[22] = system: SF-268
[23] = system: OVCAR-3
[24] = system: RXF 393
[25] = system: SK-MEL-28
[26] = system: SK-MEL-2
[27] = system: U-251
[28] = system: CCRF-CEM
[29] = system: HCT-15
[30] = system: M14
[31] = system: K562
[32] = system: RPMI-8226
[33] = system: HL-60
[34] = system: Malme-3M
[35] = system: NCI-H522
[36] = system: DMS-273
[37] = system: UO-31
[38] = system: 786-0
[39] = system: COLO 205
[40] = system: SK-MEL-5
[41] = system: HOP-92
[42] = system: SN12C
[43] = system: SW-620
[44] = system: OVCAR-5
[45] = system: SF-539
[46] = system: SNB-75
[47] = system: NCI-H226
[48] = system: LOX IMVI
[49] = system: OVCAR-8
[50] = system: UACC-257
[51] = system: ACHN
[52] = system: IGROV-1
[53] = system: A498
[54] = system: UACC-62
[55] = system: OVCAR-4
[56] = system: SNB-19
[57] = system: HOP-62
[58] = system: HT-29

SMILES: O=C1c2c(O)cc(O)cc2OC(c2ccc(O)cc2O)C1O (stereo not given)
- GI50 [1]: 57.4 µM (inactive)
- GI50 [2]: 29.9 µM (inactive)
- GI50 [3]: 42.1 µM (inactive)
- GI50 [4]: 28.6 µM (inactive)
- GI50 [5]: 36.1 µM (inactive)
- GI50 [6]: 50.9 µM (inactive)
- GI50 [7]: 54 µM (inactive)
- GI50 [8]: 40.5 µM (inactive)
- GI50 [9]: 57.5 µM (inactive)
- GI50 [10]: 60.4 µM (inactive)
- GI50 [11]: 32.5 µM (inactive)
- GI50 [12]: 60.8 µM (inactive)
- GI50 [13]: 79.6 µM (inactive)
- GI50 [14]: 57.8 µM (inactive)
- GI50 [15]: 56.4 µM (inactive)
- GI50 [16]: 59.3 µM (inactive)
- GI50 [17]: 25.7 µM (inactive)
- GI50 [18]: 31.8 µM (inactive)

SMILES: O=C(Nc1ccc(Cl)cc1Cl)C(=O)Nn1c(S)nc2ccccc2c1=O
- GI50 [19]: > 100 µM (inactive)
- GI50 [20]: > 100 µM (inactive)
- GI50 [21]: > 100 µM (inactive)
- GI50 [2]: > 100 µM (inactive)
- GI50 [3]: > 100 µM (inactive)
- GI50 [4]: > 100 µM (inactive)
- GI50 [22]: > 100 µM (inactive)
- GI50 [5]: > 100 µM (inactive)
- GI50 [23]: > 100 µM (inactive)
- GI50 [24]: > 100 µM (inactive)
- GI50 [25]: > 100 µM (inactive)
- GI50 [26]: > 100 µM (inactive)
- GI50 [27]: > 100 µM (inactive)
- GI50 [28]: > 100 µM (inactive)
- GI50 [8]: > 100 µM (inactive)
- GI50 [29]: > 100 µM
- GI50 [30]: > 100 µM (inactive)
- GI50 [31]: > 100 µM (inactive)
- GI50 [11]: > 100 µM (inactive)
- GI50 [32]: > 100 µM (inactive)
- GI50 [33]: > 100 µM (inactive)
- GI50 [34]: > 100 µM (inactive)
- GI50 [13]: > 100 µM (inactive)
- GI50 [14]: > 100 µM (inactive)
- GI50 [35]: > 100 µM (inactive)
- GI50 [36]: > 100 µM (inactive)
- GI50 [17]: > 100 µM (inactive)
- GI50 [37]: > 100 µM (inactive)
- GI50 [18]: > 100 µM (inactive)
- GI50 [38]: > 100 µM (inactive)

SMILES: CC(=O)OC1CC[C@@]2(C)C(CC(OC3OC(CO)C(O)C(O)C3O)[C@]3(C)C2CCC24CC23CC[C@H]4C(C)CC(O)[C@@H](O)C(C)(C)O)C1(C)C (stereo not given in full)
- GI50 [1]: 22.9 µM (inactive)
- GI50 [19]: 11.7 µM (inactive)
- GI50 [20]: 9.91 µM (inactive)
- GI50 [39]: 9.4 µM (inactive)
- GI50 [21]: > 50 µM (inactive)
- GI50 [2]: 8.07 µM (inactive)
- GI50 [3]: > 5 µM (inactive)
- GI50 [4]: 11.4 µM (inactive)
- GI50 [40]: 8.93 µM (inactive)
- GI50 [22]: 18.4 µM (inactive)
- GI50 [5]: 8.99 µM (inactive)
- GI50 [23]: 16.5 µM (inactive)
- GI50 [41]: 10 µM (inactive)
- GI50 [42]: 12.7 µM (inactive)
- GI50 [43]: 16.6 µM (inactive)
- GI50 [24]: 12.5 µM (inactive)
- GI50 [25]: 9.77 µM (inactive)
- GI50 [26]: 10.3 µM (inactive)
- GI50 [27]: 9.71 µM (inactive)
- GI50 [6]: 15.5 µM (inactive)
- GI50 [28]: 11.4 µM (inactive)
- GI50 [44]: > 50 µM (inactive)
- GI50 [45]: 10.3 µM (inactive)
- GI50 [46]: 11.4 µM (inactive)
- GI50 [47]: 17 µM (inactive)
- GI50 [48]: 8.61 µM (inactive)
- GI50 [7]: 19.9 µM (inactive)
- GI50 [49]: 19.9 µM (inactive)
- GI50 [8]: 29 µM (inactive)
- GI50 [50]: 11.7 µM (inactive)
- GI50 [29]: > 50 µM
- GI50 [9]: > 50 µM (inactive)
- GI50 [10]: 10.5 µM (inactive)
- GI50 [30]: 12 µM (inactive)
- GI50 [51]: > 50 µM (inactive)
- GI50 [31]: 15.4 µM (inactive)
- GI50 [11]: 10.8 µM (inactive)
- GI50 [32]: 10.3 µM (inactive)
- GI50 [12]: 16.3 µM (inactive)
- GI50 [33]: 11.6 µM (inactive)
- GI50 [34]: 9.51 µM (inactive)
- GI50 [13]: > 50 µM (inactive)
- GI50 [14]: 18.8 µM (inactive)
- GI50 [52]: 11.5 µM (inactive)
- GI50 [53]: 16.8 µM (inactive)
- GI50 [15]: 22.4 µM (inactive)
- GI50 [16]: 41.7 µM (inactive)
- GI50 [35]: 8.63 µM (inactive)
- GI50 [54]: 9.2 µM (inactive)
- GI50 [55]: > 50 µM (inactive)
- GI50 [36]: 18.2 µM (inactive)
- GI50 [37]: > 50 µM (inactive)
- GI50 [56]: 14.2 µM (inactive)
- GI50 [18]: 14 µM (inactive)
- GI50 [57]: 18.6 µM (inactive)
- GI50 [58]: 16.9 µM (inactive)
- GI50 [38]: 13.1 µM (inactive)

SMILES: CCOC(=O)CN.CCOC(=O)Nc1ccc(S(=O)(=O)OC)cc1.CCOC(=O)Nc1ccc(S(=O)(=O)OC)cc1
- GI50 [1]: > 50 µM (inactive)
- GI50 [19]: > 50 µM (inactive)
- GI50 [20]: > 50 µM (inactive)
- GI50 [39]: > 50 µM (inactive)
- GI50 [21]: > 50 µM (inactive)
- GI50 [2]: > 50 µM (inactive)
- GI50 [3]: > 50 µM (inactive)
- GI50 [4]: > 50 µM (inactive)
- GI50 [40]: > 50 µM (inactive)
- GI50 [22]: > 50 µM (inactive)
- GI50 [5]: > 50 µM (inactive)
- GI50 [23]: > 50 µM (inactive)
- GI50 [41]: > 50 µM (inactive)
- GI50 [42]: > 50 µM (inactive)
- GI50 [43]: 7.83 µM (inactive)
- GI50 [25]: > 50 µM (inactive)
- GI50 [26]: > 50 µM (inactive)
- GI50 [27]: 9.25 µM (inactive)
- GI50 [6]: > 50 µM (inactive)
- GI50 [28]: > 50 µM (inactive)
- GI50 [44]: > 50 µM (inactive)
- GI50 [45]: > 50 µM (inactive)
- GI50 [46]: > 50 µM (inactive)
- GI50 [47]: > 50 µM (inactive)
- GI50 [48]: > 50 µM (inactive)
- GI50 [7]: > 50 µM (inactive)
- GI50 [49]: > 50 µM (inactive)
- GI50 [8]: > 50 µM (inactive)
- GI50 [50]: > 50 µM (inactive)
- GI50 [29]: > 50 µM
- GI50 [9]: > 50 µM (inactive)
- GI50 [10]: > 50 µM (inactive)
- GI50 [30]: > 50 µM (inactive)
- GI50 [51]: > 50 µM (inactive)
- GI50 [31]: > 50 µM (inactive)
- GI50 [11]: > 50 µM (inactive)
- GI50 [32]: > 50 µM (inactive)
- GI50 [12]: > 50 µM (inactive)
- GI50 [33]: > 50 µM (inactive)
- GI50 [34]: > 50 µM (inactive)
- GI50 [13]: > 50 µM (inactive)
- GI50 [14]: 17.8 µM (inactive)
- GI50 [52]: > 50 µM (inactive)
- GI50 [53]: > 50 µM (inactive)
- GI50 [15]: > 50 µM (inactive)
- GI50 [16]: > 50 µM (inactive)
- GI50 [54]: > 50 µM (inactive)
- GI50 [55]: > 50 µM (inactive)
- GI50 [36]: > 50 µM (inactive)
- GI50 [37]: > 50 µM (inactive)
- GI50 [56]: > 50 µM (inactive)
- GI50 [18]: > 50 µM (inactive)
- GI50 [57]: > 50 µM (inactive)
- GI50 [58]: > 50 µM (inactive)
- GI50 [38]: > 50 µM (inactive)
